According to patent US20180064659A1, “AGENTS USEFUL FOR TREATING OBESITY, DIABETES AND RELATED DISORDERS” (The Regents of the University of California, priority 2015, published 2018):

Key:
[1] = system: FL83B cells; test: High-throughput in-cell western blot (ICWB) screen for insulin sensitizers, P-Akt over P-ERK; format: cell-based, mouse; details: for Score rank in screening assay: 1689 molecules screened
Method: Drugs were screened by in-cell western blot (ICWB) for their ability to stimulate phospho-Akt activation in the presence of trace or 10 nM insulin (FIG. 4A). Cells in wells were treated with drugs, and the activity (phosphorylation) of Akt was determined by a phospho-Akt specific antibody. In FIG. 4A, low insulin was given and drugs a, b, c, stimulated Akt activation. In FIG. 4B, 10 nM insulin was given and a, b, and c stimulated signaling over background, and d and […] inhibited. […] Drugs were primarily screened for their ability to promote insulin-dependent stimulation of (phospho)Akt, then secondarily screened for lack of activity to stimulate (phospho) Erk, or a high Akt/Erk ratio. Such drugs are expected to cause insulin sensitivity, resistance to obesity, and longevity. Some drugs having these desired characteristics are Shc inhibitors.
Primary ICWB was performed as follows: FL83B cells were seeded on 384 well plates, 10,000 cells per well in F-12 media supplemented with 10% FBS and 25 mM glucose; 48 hours later the media was replaced with F-12, 25 mM glucose without FBS for sixteen hours; cells were supplemented with assigned drug at desired concentration for 1 hour in duplicate and then, the cells were stimulated with desired concentration of insulin for ten minutes for Akt activation and fifteen minutes for ERK activation measurements. After that time the media was removed and replaced with fixing solution of 5% Formaldehyde in PBS, pH=7.4, 30 minutes later, the fixing solution was replaced with the permeabilization buffer, 0.1% triton X100 in PBS for 40 minutes. […] After the incubation with the secondary antibodies for one hour at room temperature, the wells were washed again two times with the 0.1% tween-20 in PBS and scanned on the Li-Cor Odyssey infrared scanner; images were analyzed with the Li-Cor Odyssey software. […] Phospho-Akt, Phospho-ERK signals than were normalized by tubulin signals in each well and the densitometric results were analyzed to identify drugs which improved metabolic insulin sensitivity without inducing the mitogenic ERK activation. […]

[2] = system: phospho-Shc; test: Western blot of phospho-Shc; format: cell-based
Method: Assays to identify compounds useful for preventing, reducing, delaying or inhibiting symptoms of impaired insulin sensitivity, glucose intolerance or obesity can be performed in vitro. Candidate agents can be contacted with a population of test cells in the presence of insulin (e.g., 1 nM, 5 nM, 10 nM, 100 nM or more). An agent that prevents, reduces, delays or inhibits one or more symptoms of impaired insulin sensitivity, glucose intolerance or obesity increases the ratio of levels of phospho-Akt-1 over phospho-Erk relative to a control ratio. The increase in ratio of levels of phospho-Akt-1 over phospho-Erk can be determined in comparison to a control population of cells that have not been contacted with insulin or have been contacted with a low concentration of insulin (e.g., less than 0.1 nM) or a population of cells contacted with insulin but not with the compound under test. Ratio of levels of phospho-Akt-1 over phospho-Erk can be determined using a Western blot among other methods. Inhibition of Shc activity can be quantitatively measured by assaying the reduction of stimulatory Shc phosphorylation, using a phospho-Shc specific antibody. Inhibition of Shc expression can be measured using a Western blot. […]

[3] = system: mice; test: Insulin tolerance test (ITT) and basal blood glucose in mice; format: in vivo, mouse; details: for Insulin sensitivity in vivo (ITT): PO 20 and 50 mg/kg in peanut butter, five days
Method: Insulin Tolerance Test (ITT) and Glucose Tolerance Test (GTT) Protocol for FIG. 2C: Groups of age/sex matched mice of Control and ShcKO genotypes were food deprived for four hours and challenged with I.P. injection of insulin, and glucose concentration was determined in blood exactly at indicated time-points. Decrease and recovery of blood glucose was calculated as a % of basal level (the time-point before insulin injection). Basal levels of glucose were measured in triplicate for each mouse. For the GTT, the same groups of mice were fasted during fourteen hours and challenged with glucose injection I.P., analogously the blood glucose concentrations were measured.
In-vivo drugs testing to improve the insulin sensitivity of periphery for FIG. 6D, E: Groups of mice, ten for the experimental drug treatment and 14 for the placebo treatment were subject for I.P. administration of a drug or placebo solutions daily during four days. Acarbose, a known drug which decreases blood glucose concentration was used as a control. The insulin tolerance test, ITT was performed on the mice as described previously, in Example 2.
(§1) Sensogramms were obtained, and response [nm] for each concentration was plotted against log concentration of idebenone. Sigmoidal, variable slope fitting analysis was performed using GraphPad Prism Software (GraphPad Software, Inc., La Jolla, Calif.). […] Cells were stimulated with 0.2 nM insulin for 10 minutes, and Western analyzed for induction of Akt and ERK. Insulin dependent activation of Akt is presented as fold change over vehicle control, and plotted against log concentration of idebenone; tubulin signal was used for normalization between biological samples. Sigmoidal dose-response (variable slope) fitting analysis was performed, EC50, hill slope, and top response were identified, as described above, and are indicated on the graph. p-value was calculated by testing R^2 for significance for N=65. […] Idebenone at indicated dose was given to animals 30 minutes before dark phase for five days. At the day of Insulin Tolerance Test (ITT) additional dose of idebenone was given to animals two hours prior to insulin injection. For ITT, the food was deprived at 7 am (the beginning of light phase), basal glucose was measured at 11 am, and insulin was administrated at 0.8 U/kg dose; blood glucose was recorded and expressed as % of baseline, and plotted against time. […] Software (CambridgeSoft Corporation, Waltham, Mass.), and virtually docked to Shc-PTB using iGEMDOCK software (BioXGEM Lab, National Chiao-Tung University Hsinchu, Taiwan, R.O.C), and, MOL file was generated. Three dimensional structure of PTB domain of Shc was obtained from Protein Data Bank (http://www.rcsb.org/).

[4] = system: Erk activation in FL83B mouse liver cells; test: Western blot of phospho-Erk activation in FL83B cells; format: cell-based
From the text: (§2) Western blot protocol of phospho-Akt (columns 2-4) and phospho-Erk (columns5-7). As explained above and in Example 4, Western blots of phospho-Akt and phospho-Erk are a more accurate and precise and quantitative measure of Akt phosphorylation than ICWB measurements. Insulin-dependent phospho-Akt is a direct measurement of insulin sensitivity, and we expect that Shc inhibitors will stimulate phospho-Akt more than phospho-Erk. All of the drugs listed in FIG. 5A stimulated insulin-dependent phospho-Akt at some concentration. Method. Mouse liver cells FL83B were plated at density of 400.000 cells per well of 6 well pate and cultivated for 48 hours, media was changed to DMEM, 25 mM glucose serum free and 16 hours later the cells were treated with drug at the indicated concentration for one hour. Control wells were treated with the vehicle (DMSO), in certain control wells the metabolic (Akt) insulin signaling was blocked with wortmannin. The cells were induced with indicated concentration of insulin for 10 minutes, total protein was extracted and the Western Blots were performed with indicated antibody as described above. […]

[5] = system: insulin-dependent activation of Akt in FL83B mouse liver cells; test: Western blot of insulin-dependent phospho-Akt activation in FL83B cells; format: cell-based; details: for Insulin-dependent P-Akt signaling: Western blot
From the text: as §2
Sensogramms were obtained, and response [nm] for each concentration was plotted against log concentration of idebenone. […] Cells were stimulated with 0.2 nM insulin for 10 minutes, and Western analyzed for induction of Akt and ERK. […] Sigmoidal dose-response (variable slope) fitting analysis was performed, EC50, hill slope, and top response were identified, as described above, and are indicated on the graph. p-value was calculated by testing R^2 for significance for N=65. […] For ITT, the food was deprived at 7 am (the beginning of light phase), basal glucose was measured at 11 am, and insulin was administrated at 0.8 U/kg dose; blood glucose was recorded and expressed as % of baseline, and plotted against time. […]

[6] = target: T1, Shc-PTB domain (Homo sapiens, UniProt P29353); test: Octet RED 384 binding to p52Shc protein (p52Shc lacking PTB domain as reference); details: for EC50: 10 pM to 100 uM, Octet RED 384
T1 sequence (P29353 1-473 isoform P29353-2): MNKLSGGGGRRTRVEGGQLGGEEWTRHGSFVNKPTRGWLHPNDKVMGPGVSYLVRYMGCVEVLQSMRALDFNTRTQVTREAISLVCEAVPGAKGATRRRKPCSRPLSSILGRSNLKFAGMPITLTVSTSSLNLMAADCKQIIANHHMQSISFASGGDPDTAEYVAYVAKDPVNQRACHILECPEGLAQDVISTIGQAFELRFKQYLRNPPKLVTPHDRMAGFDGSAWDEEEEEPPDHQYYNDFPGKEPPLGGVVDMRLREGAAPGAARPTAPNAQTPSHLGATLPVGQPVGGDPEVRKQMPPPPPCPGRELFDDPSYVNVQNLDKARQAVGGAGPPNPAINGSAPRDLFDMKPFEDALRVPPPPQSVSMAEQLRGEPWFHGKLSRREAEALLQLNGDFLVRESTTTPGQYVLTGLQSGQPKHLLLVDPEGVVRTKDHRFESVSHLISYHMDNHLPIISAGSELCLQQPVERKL
Method: as §1
FIGS. 9A-E illustrate that SrcI-1 binds into PTB domain of Shc protein. […] Sensograms were obtained and shown. […] Sigmoidal, variable slope fitting analysis was performed; EC50, hill slope, and top response were identified, and indicated. p-value was calculated by testing R^2 for significance for N=24; SrcI-1 was binding to Shc-PTB domain with EC50 of 3 μM.
FIGS. 11A-F illustrate details of interaction of idebenone analogs, idebenone and SrcI-1 with Shc protein. […]

[7] = system: corticosterone-treated mice; test: Corticosterone-treated mice: blood glucose and ITT; format: in vivo, mouse
Method: Mice were kept pathogen-free throughout the study. All experimental procedures were approved by the Institutional Animal Care and Use Committee (IACUC) and were performed in compliance with local, state, and federal regulations. Diet was LM-485 (Teklad 7012) with nutrient composition: protein=19.9%, carbohydrates=53.7%, fat=5.7%. The source of lipid was soybean oil, protein-soybean meal, energy source-ground oats. Group of 36 13-month old male and female mice were tested with ITT before the study began and were started on Corticosterone in drinking water at 100 mg/L. Body weight and blood glucose were monitored. FIG. 12A illustrates experimental flow. Mice were started on corticosterone at day 1 and continued on it through the study. At day 13 the group was randomly split 1:1 and half were given idebenone as a mixture with peanut butter daily, another half was given placebo daily for another 5 days. All mice continued receiving corticosterone in drinking water for these 5 days, and then ITT were performed. For insulin tolerance tests mice were fasted for six hours and given intra-peritoneal injection of insulin (0.2 U/kg); then blood glucose was measured in the indicated time course (FIG. 12D). FIG. 12B bars are body weights in grams. […] (FIG. 12D) ITT of Control, CS+placebo, and CS+idebenone groups. […] Error bars are standard deviations. *=p<0.05. […]

Row | EC50 ([6]; 24 point titration) | EC50 ([6]; 48 point titration) | SMILES | Score rank in screening assay [1] | phospho-Shc activation [2] | Basal blood glucose ([3]; 2.5 mg/kg I.P. for 4 days) | Insulin sensitivity in-vivo (ITT) ([3]; 2.5 mg/kg I.P. for 4 days) | Erk activation [4] | P-Akt/P-Erk ratio [4] | Insulin-dependent P-Akt signaling [5] | Binding to Shc-PTB ([6]; Octet RED 384 sensograms) | P-Akt/P-Erk ratio in primary screen ([1]; ICWB primary screen) | Insulin sensitivity in vivo (ITT) [3] | Insulin sensitivity in vivo (ITT) ([3]; listed as Idebenone) | Blood glucose level ([7]; 18th day, corticosterone 100 mg/L in drinking water, idebenone daily 5 days, versus placebo) | Sensitivity to insulin in ITT ([7]; 40, 60, and 90 minutes after insulin 0.2 U/kg, versus corticosterone plus placebo) | EC50 ([5]; Mus musculus, drug 1 hour, 0.2 nM insulin for 10 minutes, 65 points, read-out: EC50 of sensitizing cells to insulin (insulin dependent activation of Akt))
1 | 3000 nM |  | COc1cc2ncnc(Nc3ccc(Oc4ccccc4)cc3)c2cc1OC [SrcI-1] | scored in the top 35 out of 1689 molecules | inhibited phospho-Shc activation in dose-dependent manner | significantly decreased basal blood glucose | increased insulin sensitivity in-vivo | decreased Erk activation | increasing the P-Akt/P-Erk ratio | stimulates insulin-dependent P-Akt signaling | binding to Shc-PTB in dose-dependent fashion |  |  |  |  |  | 
2 |  | 1.2 nM | COC1=C(OC)C(=O)C(CCCCCCCCCCO)=C(C)C1=O [idebenone] |  | decreased phospho-Shc in a dose-dependent manner |  |  |  |  | increased insulin-dependent phospho-Akt activation in a dose-dependent manner |  | increased P-Akt/P-Erk ratio | increased insulin sensitivity in vivo | significantly improving insulin sensitivity in-vivo | significant decrease comparing to placebo group in blood glucose level | significantly more sensitive to insulin than corticosterone plus placebo | 3.3 nM
3 |  |  | CN(C)C(=N)N=C(N)N [metformin] | scored in the top 35 out of 1689 molecules |  |  |  |  |  |  |  |  |  |  |  |  | 
